Results published in patent US8076300B2, “FGF2-binding peptides and uses thereof” (Tecnogen S.p.A., priority 2006, dated 2011).
Ends that are not written are not given here.

What was measured:
[1] = biological target: T1, FGF2 (Homo sapiens, UniProt P09038); experiment: BIAcore binding assay, FGF2 binding to PTX3 immobilized to a sensorchip; parameters: made in house; host or cells: FGF2: E. coli; PTX3: Chinese hamster ovary cells; details: for inhibition of FGF2 binding to PTX3 immobilized to a BIAcore sensorchip / IC50: FGF2 0.8 μM; for inhibition of FGF2 binding to PTX3 immobilized to a BIAcore sensorchip: increasing peptide concentrations; for IC50: antagonist in mobile phase, read-out: ID50, inhibition of FGF2 binding to the PTX3 surface
T1 sequence (P09038 134-288): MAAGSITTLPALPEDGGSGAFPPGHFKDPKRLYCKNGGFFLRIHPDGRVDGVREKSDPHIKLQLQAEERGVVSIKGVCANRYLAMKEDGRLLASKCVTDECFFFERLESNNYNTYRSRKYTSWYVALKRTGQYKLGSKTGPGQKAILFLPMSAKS
Procedure: A BIAcore X apparatus (BIAcore Inc, Piscataway, N.J.) was used. Surface plasmon resonance was exploited to measure changes in refractive index caused by the ability of FGF2 to bind to PTX3 immobilized to a BIAcore sensorchip. To this purpose, PTX3 (2.2 μM) was allowed to react with a flow cell of a CM4 sensorchip that was previously activated with 50 μl of a mixture of 0.2 M N-ethyl-N′-(3-dimethylaminopropyl)-carbodiimide hydrochloride and 0.05 M N-hydroxysuccinimide. These experimental conditions allowed the immobilization of 5,000 resonance units (RUs), corresponding to approximately 0.1 pmoles of PTX3. Similar results were obtained for immobilization of gelatin, here used as a negative control and for blank subtraction. Increasing concentrations of FGF2 with or without synthetic PTX3 peptides were then injected in dilution buffer (PBS plus 0.005% surfactant P20, 5.0 μg/mL CaCl2 and MgCl2) over the PTX3 surface for 4 minutes (to allow their association with immobilized PTX3) and then washed until dissociation was observed.

[2] = biological target: T1, FGF2; experiment: Solid phase binding assay, FGF2 binding to immobilized synthetic PTX3 peptides; parameters: made in house; host or cells: E. coli; details: peptides 200 μg/well, FGF2 80 nM
Procedure: ELISA microplates were incubated for 16 hours at 4° C. with 100 μl/well of 100 mM NaHCO3, pH 9.6 (coating buffer) containing FGF2 (270 nM). Then, wells were overcoated for 2 hours at room temperature with 5% dry milk in coating buffer. […] Then, wells were sequentially incubated for 1 hour at 37° C. with a rabbit polyclonal anti-PTX3 antibody (1:2000 dilution) that recognizes both PTX3 fragments with similar efficiency in Western blot and ELISA, an anti-rabbit biotinylated antibody (1:2000), and 100 μl of streptavidin-horseredish peroxidase (1:5000, Amersham) for 1 hour at room temperature. Then, 100 μl/well of the chromogen substrate 2,29-azinobis(3-ethylbenzthiazolinesulfonic acid) were added. Absorbance values were read at 405 nm in an automatic ELISA reader. In some experiments, 100-μl aliquots of PBS containing biotin-labeled PTX3 (bPTX3) (22 nM) were incubated for 30 minutes at 37° C. onto FGF2-coated wells with or without competitors. Then, wells were washed, and the amount of bound bPTX3 was evaluated as described^17. Alternatively, synthetic PTX3 peptides were immobilized on ELISA microplate wells (200 μg/well) as described above. Then, FGF2 (80 nM) was added and FGF2 bound to immobilized peptides was assessed by 1 hour incubation at 37° C. with a rabbit polyclonal anti-FGF2 antibody (1:7000) followed by immunocomplex detection as described above.

[3] = tested on: GM7373 cells; experiment: Cell proliferation assay, endothelial GM7373 cells; type: cell-based, bovine; details: for inhibition of mitogenic activity exerted by FGF2: FGF2 0.55 nM, peptides 66 μM, PTX3 220 nM
Procedure: Cell proliferation assay on endothelial cells was performed as described^22. Briefly, GM7373 or MAE cells were seeded in 96-well dishes at 75,000 cells/cm^2 or 25,000 cells/cm^2, respectively. After 16 h, cells were incubated in fresh medium containing 0.4% FCS plus FGF2 (0.55 nM) in the absence or in the presence of different antagonists. After 24 or 48 h, respectively, cells were trypsinized and counted in a Burker chamber.

[4] = tested on: chick embryo CAM; experiment: Chicken embryo chorioallantoic membrane (CAM) assay, FGF2-induced neovascularization; type: in vivo; details: for macroscopic vessels converging towards the implant: FGF2 16 pmoles/embryo, with or without 3.0 nmoles of peptide, 72 hours
Procedure: Alginate beads (5 μl) containing vehicle or 16 pmoles of FGF2 with or without synthetic PTX3 peptides were prepared as described 24 and placed on top of the CAM of fertilized White Leghorn chicken eggs at day 11 of incubation (10 eggs per experimental group). After 72 hours, blood vessels converging towards the implant were counted by two observers in a double-blind fashion under a stereomicroscope (STEMI-SR, x2/0.12; Zeiss).

| inhibition of FGF2 binding to PTX3 immobilized to a BIAcore sensorchip [1] | binding of free FGF2 to immobilized peptide or PTX3 [2] | Substance | inhibition of mitogenic activity exerted by FGF2 [3] | also measured |
| --- | --- | --- | --- | --- |
| no inhibitory effect | not | DNEIDNGLHPTEDPTPCDCGQEHSEWDKLF [PTX3(31-60)] | ineffective |  |
| ineffective | without interacting | RGELQRLREELGRLAESLAR [PTX3(82-101)] | not |  |
| no inhibitory effect | not | DKLFIMLENSQMRERMLLQATDDVLRGEL [PTX3(57-85)] | ineffective |  |
| did not prevent the binding |  | ARPCAPGAPAE [PTX3(100-110)] |  |  |
| did not prevent the binding |  | ESLARPCA [PTX3(97-104)] |  |  |
|  | binds | RGELQRLREELGRLAESLARPCAPGAPAE [PTX3(82-110)] | inhibit | macroscopic vessels converging towards the implant [4]: 28±5 vessels/embryo; IC50 [1]: 30 µM; potency relative to free full length PTX3 ([1]; inhibition of FGF2 binding to PTX3 surface): 30 times lower; IC50 ([3]; dose-response, read-out: ID50, FGF2-antagonist activity on GM7373 cell proliferation): 30 µM |
| significant binding to FGF2 |  | ARPCA [PTX3(100-104)] | inhibits |  |
|  |  | EGLRGELRGSREAELLRQAARAPACPLPE [scrambled PTX3(82-110), reference compound] |  | IC50 [1]: > 3000 µM |
| no inhibitory effect | limited interaction | APAEARLTSALDELLQATRDAGRRLA [PTX3(107-132)] | ineffective |  |
| ineffective | without interacting | RGELQRLREELGRLA [PTX3(82-96)] | not | effect on angiogenic response triggered by FGF2 ([4]; FGF2 16 pmoles): no effect |
| significant binding to FGF2 |  | ESLARPCAPGA [PTX3(97-107)] |  |  |
|  |  | FGF2: Human recombinant FGF2 expressed in E. coli; heparin-binding growth factor, the angiogenic stimulus |  | macroscopic vessels converging towards the implant [4]: 44±7 vessels/embryo |

| Substance | inhibition of FGF2 binding to PTX3 immobilized to a BIAcore sensorchip [1] | binding of free FGF2 to immobilized peptide or PTX3 [2] | inhibition of mitogenic activity exerted by FGF2 [3] | also measured |
| --- | --- | --- | --- | --- |
| ESLARPCAPGAPAE [PTX3(97-110)] | preventing its interaction with PTX3 immobilized to a BIAcore sensorchip | binds | inhibits | inhibition in the angiogenic response triggered by FGF2 ([4]; 80 nmoles of peptide, FGF2 16 pmoles): 50% |
